Patent publication US11299501B2 (BRISTOL-MYERS SQUIBB COMPANY, priority 2017, dated 2022)

Key:
Format in all cases: cell-based
human TLR7 = target: T1, human TLR7 (Homo sapiens, UniProt Q9NYK1); test: TLR7 inhibition reporter assay (HEK-Blue SEAP); conditions: cells overexpressing human TLR7, SEAP reporter, stimulated with gardiquimod 7.5 μM, 22 hour incubation
T1 construct: host or cells: HEK-Blue cells
T1 sequence (Q9NYK1 27-1049): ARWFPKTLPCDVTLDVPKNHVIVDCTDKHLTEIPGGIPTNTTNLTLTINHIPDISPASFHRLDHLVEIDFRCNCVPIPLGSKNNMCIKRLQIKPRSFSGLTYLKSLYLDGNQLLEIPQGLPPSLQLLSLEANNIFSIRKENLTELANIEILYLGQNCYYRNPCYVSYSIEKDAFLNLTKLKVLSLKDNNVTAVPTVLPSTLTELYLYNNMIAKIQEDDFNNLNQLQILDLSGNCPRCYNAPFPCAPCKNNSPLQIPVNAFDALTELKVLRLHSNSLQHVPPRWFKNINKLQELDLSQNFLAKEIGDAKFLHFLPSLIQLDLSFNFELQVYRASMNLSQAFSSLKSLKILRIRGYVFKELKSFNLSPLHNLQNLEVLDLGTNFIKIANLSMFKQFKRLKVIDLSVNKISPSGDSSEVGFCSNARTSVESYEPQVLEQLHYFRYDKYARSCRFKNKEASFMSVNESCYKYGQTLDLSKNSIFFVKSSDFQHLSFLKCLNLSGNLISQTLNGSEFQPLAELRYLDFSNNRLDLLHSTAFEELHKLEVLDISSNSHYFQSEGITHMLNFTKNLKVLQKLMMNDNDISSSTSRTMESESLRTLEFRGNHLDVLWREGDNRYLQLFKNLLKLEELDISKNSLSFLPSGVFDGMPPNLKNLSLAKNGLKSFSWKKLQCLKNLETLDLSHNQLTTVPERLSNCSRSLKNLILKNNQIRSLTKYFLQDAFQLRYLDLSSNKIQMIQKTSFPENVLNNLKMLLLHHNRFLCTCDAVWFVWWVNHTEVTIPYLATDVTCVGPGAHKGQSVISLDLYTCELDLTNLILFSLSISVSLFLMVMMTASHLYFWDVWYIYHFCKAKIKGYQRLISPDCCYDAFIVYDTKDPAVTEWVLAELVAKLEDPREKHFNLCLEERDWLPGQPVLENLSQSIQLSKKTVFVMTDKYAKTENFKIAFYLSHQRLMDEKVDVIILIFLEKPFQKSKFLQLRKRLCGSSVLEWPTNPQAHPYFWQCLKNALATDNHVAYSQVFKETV
Protocol: (§1) TLR7/8/9 Inhibition Reporter Assays
(§2) […] (Invivogen) overexpressing human TLR7, TLR8 or TLR9 receptors were used for screening inhibitors of these receptors using an inducible SEAP (secreted embryonic alkaline phosphatase) reporter gene under the control of the IFN-β minimal promoter fused to five NF-κB and AP-1-binding sites. Briefly, cells are seeded into Greiner 384 well plates (15000 cells per well for TLR7, 20,000 for TLR8 and 25,000 for TLR9) and then treated with test compounds in DMSO to yield a final dose response concentration range of 0.05 nM-50 μM. After a 30 minute compound pre-treatment at room temperature, the cells are then stimulated with a TLR7 ligand (gardiquimod at a final concentration of 7.5 μM). TLR8 ligand (R848 at a final concentration of 15.9 μM) or TLR9 ligand (ODN2006 at a final concentration of 5 nM) to activate NF-κB and AP-1 which induce the production of SEAP. After a 22 hour incubation at 37° C., 5% CO2, SEAP levels are determined with the addition of HEK-Blue™ Detection reagent (Invivogen), a cell culture medium that allows for detection of SEAP, according to manufacturer's specifications. The percent inhibition is determined as the % reduction in the HEK-Blue signal present in wells treated with agonist plus DMSO alone compared to wells treated with a known inhibitor.

human TLR8 = target: T2, human TLR8 (Homo sapiens, UniProt Q9NR97); test: TLR8 inhibition reporter assay (HEK-Blue SEAP); conditions: cells overexpressing human TLR8, SEAP reporter, stimulated with R848 15.9 μM, 22 hour incubation
T2 construct: host or cells: HEK-Blue cells
T2 sequence (Q9NR97 27-1041): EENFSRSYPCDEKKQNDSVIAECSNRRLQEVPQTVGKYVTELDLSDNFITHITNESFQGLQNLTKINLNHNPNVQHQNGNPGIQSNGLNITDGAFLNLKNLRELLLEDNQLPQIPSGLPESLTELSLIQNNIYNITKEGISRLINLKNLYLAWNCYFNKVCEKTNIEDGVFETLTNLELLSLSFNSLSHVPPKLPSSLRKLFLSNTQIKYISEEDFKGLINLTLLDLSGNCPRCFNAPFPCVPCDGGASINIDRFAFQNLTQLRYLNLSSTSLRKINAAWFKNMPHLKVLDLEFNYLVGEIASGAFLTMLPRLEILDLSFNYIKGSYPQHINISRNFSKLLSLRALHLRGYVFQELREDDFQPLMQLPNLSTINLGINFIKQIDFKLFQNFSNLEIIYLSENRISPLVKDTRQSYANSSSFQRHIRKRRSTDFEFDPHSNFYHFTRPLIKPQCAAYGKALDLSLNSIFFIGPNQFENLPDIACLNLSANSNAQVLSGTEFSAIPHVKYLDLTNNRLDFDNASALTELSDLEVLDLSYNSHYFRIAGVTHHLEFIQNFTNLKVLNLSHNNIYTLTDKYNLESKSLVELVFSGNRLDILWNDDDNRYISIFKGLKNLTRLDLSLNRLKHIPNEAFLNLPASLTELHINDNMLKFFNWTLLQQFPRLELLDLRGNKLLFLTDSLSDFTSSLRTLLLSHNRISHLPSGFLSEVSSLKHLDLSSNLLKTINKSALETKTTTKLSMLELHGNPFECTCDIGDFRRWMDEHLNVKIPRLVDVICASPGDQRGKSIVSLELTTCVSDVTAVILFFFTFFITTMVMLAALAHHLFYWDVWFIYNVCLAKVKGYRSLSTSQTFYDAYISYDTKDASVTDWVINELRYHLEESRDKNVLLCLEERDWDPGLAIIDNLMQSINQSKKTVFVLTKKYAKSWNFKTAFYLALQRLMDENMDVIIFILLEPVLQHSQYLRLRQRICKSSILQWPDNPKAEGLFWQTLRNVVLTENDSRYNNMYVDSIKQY
Protocol: as §1, §2

human TLR9 = target: T3, human TLR9 (Homo sapiens, UniProt Q9NR96); test: TLR9 inhibition reporter assay (HEK-Blue SEAP); conditions: cells overexpressing human TLR9, SEAP reporter, stimulated with ODN2006 5 nM, 22 hour incubation
T3 construct: host or cells: HEK-Blue cells
T3 sequence (Q9NR96 26-1032): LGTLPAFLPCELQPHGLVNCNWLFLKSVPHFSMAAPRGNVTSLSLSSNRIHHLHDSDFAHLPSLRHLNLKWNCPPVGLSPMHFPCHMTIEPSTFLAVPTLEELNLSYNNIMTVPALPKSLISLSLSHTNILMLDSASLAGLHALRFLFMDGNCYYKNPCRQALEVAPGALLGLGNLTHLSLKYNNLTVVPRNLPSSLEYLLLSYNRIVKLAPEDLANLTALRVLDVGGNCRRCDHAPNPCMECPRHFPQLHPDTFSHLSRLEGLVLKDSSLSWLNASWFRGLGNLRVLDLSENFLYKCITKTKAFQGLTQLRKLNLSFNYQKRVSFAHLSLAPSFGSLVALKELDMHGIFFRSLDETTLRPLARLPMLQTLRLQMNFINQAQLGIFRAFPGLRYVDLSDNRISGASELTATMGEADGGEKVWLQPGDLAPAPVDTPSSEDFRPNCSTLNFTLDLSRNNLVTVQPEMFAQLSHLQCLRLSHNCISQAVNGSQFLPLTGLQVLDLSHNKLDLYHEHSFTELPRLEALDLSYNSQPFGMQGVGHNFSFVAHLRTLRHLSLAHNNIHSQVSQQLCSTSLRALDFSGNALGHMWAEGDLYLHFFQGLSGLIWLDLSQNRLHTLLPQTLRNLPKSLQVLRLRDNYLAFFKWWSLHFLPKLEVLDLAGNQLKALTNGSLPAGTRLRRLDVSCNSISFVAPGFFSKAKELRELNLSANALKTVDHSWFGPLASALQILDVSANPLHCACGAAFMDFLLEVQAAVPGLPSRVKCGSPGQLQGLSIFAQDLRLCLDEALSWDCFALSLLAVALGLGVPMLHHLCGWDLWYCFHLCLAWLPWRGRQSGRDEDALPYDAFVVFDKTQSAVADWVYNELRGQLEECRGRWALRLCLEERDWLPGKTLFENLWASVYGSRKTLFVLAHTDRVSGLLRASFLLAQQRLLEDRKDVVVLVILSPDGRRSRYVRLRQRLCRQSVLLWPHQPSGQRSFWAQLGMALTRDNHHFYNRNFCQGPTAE
Protocol: as §1, §2

For `CCc1c(-c2ccnc3[nH]ncc23)[nH]c2cnc(C3CCN(C4CCN(C(C)C)CC4)CC3)nc12` [Example 25, 4-(7-ethyl-2-(1′-isopropyl-[1,4′-bipiperidin]-4-yl)-5H-pyrrolo[3,2-d]pyrimidin-6-yl)-1H-pyrazolo[3,4-b]pyridine], the IC50 (human TLR7) was 100 to 1000 nM, the IC50 (human TLR8) was 100 to 1000 nM and the IC50 (human TLR9) was 100 to 1000 nM.

Work on `CCc1c(-c2ccc(OC)c(OC)c2)[nH]c2cnc(-c3nnc(C[C@H]4CCCCN4)o3)nc12` [Example 36, (R)-2-(6-(3,4-dimethoxyphenyl)-7-ethyl-5H-pyrrolo[3,2-d]pyrhnidin-2-yl)-5-(piperidin-2-ylmethyl)-1,3,4-oxadiazole] yielded an IC50 (human TLR7) of 1000 to 50000 nM, an IC50 (human TLR8) of 100 to 1000 nM and an IC50 (human TLR9) of 1000 to 50000 nM.

`CCc1c(-c2ccc(OC)c(OC)c2)[nH]c2cnc(-c3nnc(C[C@H]4CCCN4)o3)nc12` [Example 47, (R)-2-(6-(3,4-dimethoxyphenyl)-7-ethyl-5H-pyrrolo[3,2-d]pyrimidin-2-yl)-5-(pyrrolidin-2-ylmethyl)-1,3,4-oxadiazole] was tested, and the IC50 (human TLR7) was 1000 to 50000 nM, the IC50 (human TLR8) was 100 to 1000 nM and the IC50 (human TLR9) was 1000 to 50000 nM.

In the case of `Cc1c(-c2[nH]c3cnc(C4CCN(CC(=O)N(C)C)CC4)nc3c2C(C)C)cn2ncnc2c1C` [Example 10, 2-(4-(6-(7,8-dimethyl-[1,2,4]triazolo[1,5-a]pyrimidin-6-yl)-7-isopropyl-5H-pyrrolo[3,2-d]pyrimidin-2-yl)piperidin-1-yl)-N,N-dimethylacetantide], the IC50 (human TLR7) is reported as < 100 nM, the IC50 (human TLR8) is reported as < 100 nM and the IC50 (human TLR9) is reported as 1000 to 50000 nM.

With `COc1cc(-c2[nH]c3cnc(C4CCN(C(=O)CN(C)C)CC4)nc3c2C(C)C)cn2ncnc12` [Example 11, 2-(dirnethylamino)-1-(4-(7-isopropyl-6-(8-methoxy-[1,2,4]triazolo[1,5-a]pyridin-6-yl)-5H-pyrrolo[3,2-d]pyrimidin-2-yl)piperidin-1-yl)ethan-1-one] the IC50 (human TLR7) was < 100 nM, the IC50 (human TLR8) was < 100 nM and the IC50 (human TLR9) was 1000 to 50000 nM.

`CNC(=O)CN1CCC(c2ncc3[nH]c(-c4cc(C)c5ncnn5c4)c(C(C)C)c3n2)CC1` [Example 30, 2-(4-(7-isopropyl-6-(8-methyl-[1,2,4]triazolo[1,5-a]pyridin-6-yl)-5H-pyrrolo[3,2-d]pyrimidin-2-yl)piperidin-1-yl)-N-tnethylacetamide] was tested, and the IC50 (human TLR7) was < 100 nM, the IC50 (human TLR8) was < 100 nM and the IC50 (human TLR9) was > 50000 nM.

With `COc1ccc(-c2[nH]c3cnc(C4CCN(C5CCN(C(C)C)CC5)CC4)nc3c2C(C)C)cc1OC` [Example 22, 6-(3,4-dimedioxyphenyl)-7-isopropyl-2-(1′-isopropyl-[1,4′-bipiperidin]-4-yl)-5H-pyrrolo[3,2-d]pyrimidine] the IC50 (human TLR7) was < 100 nM, the IC50 (human TLR8) was < 100 nM and the IC50 (human TLR9) was 100 to 1000 nM.

With `CCc1c(-c2ccc(OC)c(OC)c2)[nH]c2cnc(-c3nnc(CCN(C)C)o3)nc12` [Example 48, 2-(5-(6-(3,4-dimethoxyphenyl)-7-ethyl-5H-pyrrolo[3,2-d]pyrimidin-2-yl)-1,3,4-oxadiazol-2-yl)-N,N-dimethylethan-1-amine] the IC50 (human TLR7) was 1000 to 50000 nM, the IC50 (human TLR8) was 100 to 1000 nM and the IC50 (human TLR9) was 1000 to 50000 nM.

In the case of `Cc1cc(-c2[nH]c3cnc(C4CCN(C5COC5)CC4)nc3c2C(C)C)cn2ncnc12` [Example 24, 6-(7-isopropyl-2-(1-(oxetan-3-yl)piperidin-4-yl)-5H-pyrrolo[3,2-d]pyrimidin-6-yl)-8-methyl-[1,2,4]triazolo[1,5-a]pyridine], the IC50 (human TLR7) is reported as < 100 nM, the IC50 (human TLR8) is reported as < 100 nM and the IC50 (human TLR9) is reported as 1000 to 50000 nM.

For `Cc1c(-c2[nH]c3cnc(C4CCN(CC(C)(C)O)CC4)nc3c2C(C)C)cn2ncnc2c1C` [Example 27, 1-(4-(6-(7,8-dimethyl-[1,2,4]triazolo[1,5-a]pyridin-6-yl)-7-isopropyl-5H-pyrrolo[3,2-d]pyrimidin-2-yl)piperidin-1-yl)-2-methylpropan-2-ol], the IC50 (human TLR7) was < 100 nM, the IC50 (human TLR8) was < 100 nM and the IC50 (human TLR9) was 1000 to 50000 nM.

With `CCc1c(-c2ccc(OC)c(OC)c2)[nH]c2cnc(C3CCN(Cc4nc(C)c[nH]4)CC3)nc12` [Example 52, 6-(3,4-dimethoxyphenyl)-7-ethyl-2-(1-((4-methy 1H-imidazol-2-yl)methyl)piperidin-4-yl)-5H-pyrrolo[3,2-d]pyrimidine] the IC50 (human TLR7) was 100 to 1000 nM, the IC50 (human TLR8) was < 100 nM and the IC50 (human TLR9) was 1000 to 50000 nM.
